What was measured:
Type in all cases: in vivo
Setaria [1] = assay: Pre-emergence test; conditions: greenhouse, 250 g a.i./ha, scored after three weeks
Experimental: (§1) [table] To prepare a suitable active compound preparation, 1 part by weight of active compound is mixed with the stated amount of solvent, the stated amount of emulsifier is added, and the concentrate is diluted with water to the desired concentration. Seeds of the test plant are sown in normal soil. After approximately 24 hours, the soil is sprayed with the active compound preparation in such a way that the amounts of active compound desired in each case are applied per unit area. The concentration of the spray mixture is chosen in such a way that the amounts of active compound desired in each case are applied in 1 000 1 of water/ha. After three weeks, the degree of damage of the plants is scored in % damage in comparison with the development of the untreated control.

Echinochloa [2] = assay: Pre-emergence test; conditions: greenhouse, 250 g a.i./ha, scored after three weeks
Experimental: as §1

Alopecurus [3] = assay: Pre-emergence test; conditions: greenhouse, 250 g a.i./ha, scored after three weeks
Experimental: as §1

Avena fatua [4] = assay: Pre-emergence test; conditions: greenhouse, 250 g a.i./ha, scored after three weeks
Experimental: as §1

Setaria [5] = assay: Post-emergence test; conditions: greenhouse, 250 g a.i./ha, scored after three weeks
Experimental: (§2) To prepare a suitable active compound preparation, 1 part by weight of active compound is mixed with the stated amount of solvent, the stated amount of emulsifier is added, and the concentrate is diluted with water to the desired concentration.
(§3) Test plants with a height of 5-15 cm are sprayed with the active compound preparation in such a way that the amounts of active compound desired in each case are applied per unit area. The concentration of the spray mixture is chosen in such a way that the amounts of active compound desired in each case are applied in 1 000 1 of water/ha.
(§4) After three weeks, the degree of damage of the plants is scored in % damage in comparison with the development of the untreated control.
(§5) The figures denote: • 0% =no effect (like untreated control) • 100% =total destruction

Echinochloa [6] = assay: Post-emergence test; conditions: greenhouse, 250 g a.i./ha, scored after three weeks
Experimental: as §2, §3, §4, §5

Sinapis = assay: Post-emergence test; conditions: greenhouse, 250 g a.i./ha, scored after three weeks
Experimental: as §2, §3, §4, §5

Alopecurus [7] = assay: Post-emergence test; conditions: greenhouse, 250 g a.i./ha, scored after three weeks
Experimental: as §2, §3, §4, §5

Avena fatua [8] = assay: Post-emergence test; conditions: greenhouse, 250 g a.i./ha, scored after three weeks
Experimental: as §2, §3, §4, §5

cereals [9] = assay: Greenhouse experiment with cereals with 100 g a.i./ha mefenpyr, post-emergence, evaluation 21 days after application; conditions: 50 g a.i./ha, no safener
Experimental: (§6) Seeds of monocotyledonous and dicotyledonous weed and crop plants are placed in sandy loam in wood fibre pots or in plastic pots, covered with soil and grown in the greenhouse or, during the vegetation period, in the open outside the greenhouse, under good growth conditions. 2 to 3 weeks after sowing, the test plants are treated in the one- to three-leaf stage. The test compounds, which are formulated as wettable powder (WP) or as a fluid (EC), are sprayed onto the plants and the soil surface at various dosage rates with a water application rate of 300 l/ha (converted), with added wetter (0.2 to 0.3%). 3 to 4 weeks after the treatment of the test plants, the effect of the preparations is scored visually in comparison with untreated controls (herbicidal activity in per cent (%): 100% activity=plants have died, 0% activity=like control plants). […]
(§7) The activity of the safener substance can be assessed in comparison with untreated control plants by comparing the effect of test substances on crop plants which have been treated without and with safener. […]

[10] = test system: larvae of the mustard beetle (Phaedon cochleariae); assay: Phaedon larvae test; conditions: 1000 ppm
Experimental: [table] To produce a suitable preparation of active compound, 1 part by weight of active compound is mixed with the stated amounts of solvent and emulsifier, and the concentrate is diluted with emulsifier-containing water to the desired concentration. Cabbage leaves (Brassica oleracea) are treated by being dipped into the preparation of active compound of the desired concentration and are infested with the larvae of the mustard beetle (Phaedon cochleariae) while the leaves are still moist.

Spring barley = assay: Post-emergence crop plant tolerance, greenhouse experiments with safener pretreatment (mefenpyr)
Experimental: (§8) Post-Emergence Crop Plant Tolerance
(§9) Seeds of monocotyledonous and dicotyledonous weed and crop plants are placed in sandy loam in wood fibre pots or in plastic pots, covered with soil and grown in the greenhouse or, during the vegetation period, in the open outside the greenhouse, under good growth conditions. 2 to 3 weeks after sowing, the test plants are treated in the one- to three-leaf stage. The test compounds, which are formulated as wettable powder (WP) or as a fluid (EC), are sprayed onto the plants and the soil surface at various dosage rates with a water application rate of 300 l/ha (converted), with added wetter (0.2 to 0.3%). 3 to 4 weeks after the treatment of the test plants, the effect of the preparations is scored visually in comparison with untreated controls (herbicidal activity in per cent (%): 100% activity=plants have died, 0% activity=like control plants).
(§10) If it is additionally desired to test whether safeners are capable of improving the plant tolerance of test substances with regard to the crop plants, the following options for applying the safeners are used: • Prior to application of the test substances, the crop plants are sprayed with safener at a particular application rate per hectare (usually 1 day prior to application of the test substances). • The safener is applied together with the test substance in the form of a tank mix (the amount of safener being indicated in g/ha or as a safener:herbicide ratio).
(§11) The activity of the safener substance can be assessed in comparison with untreated control plants by comparing the effect of test substances on crop plants which have been treated without and with safener.
(§12) Results of Greenhouse Experiments With Safener/Pretreatment (Safener Mefenpyr (100 g a.i./ha), One Day Prior to Post-Emergence Treatment With the Herbicide)

Spring wheat = assay: as above
Experimental: as §8, §9, §10, §11, §12

cereals [11] = assay: Container experiments with cereals outside the greenhouse, herbicide:mefenpyr 1:2 tank mix; conditions: no safener
Experimental: as §9, §10, §11
Container Experiments with Cereals Outside the Greenhouse Herbicide: mefenpyr 1:2 tank mix

cereals [12] = assay: Container experiments with cereals outside the greenhouse, herbicide + mefenpyr 50 g a.i./ha; conditions: 100 g a.i./ha, no safener
Experimental: as §6, §7

[13] = 100 g a.i./ha herbicide, no safener
[14] = 25 g a.i./ha herbicide, no safener
[15] = 50 g a.i./ha herbicide, no safener
[16] = application rate 25 g a.i./ha, without safener
[17] = application rate 50 g a.i./ha, without safener
[18] = application rate 100 g a.i./ha, without safener

CCc1cc(Cl)cc(OC)c1C1=C(O)C(C)(C)NC1=O [Example I-1-a-5]
degree of damage, Setaria (Setaria [1]): 100% | degree of damage, Echinochloa (Echinochloa [2]): 100% | degree of damage, Alopecurus (Alopecurus [3]): 90% | degree of damage, Avena fatua (Avena fatua [4]): 100% | degree of damage, Setaria (Setaria [5]): 100% | degree of damage, Echinochloa (Echinochloa [6]): 100% | degree of damage, Sinapis (Sinapis): 80% | degree of damage, Alopecurus (Alopecurus [7]): 100% | degree of damage, Avena fatua (Avena fatua [8]): 100%

CCc1cc(Cl)cc(OC)c1C1=C(O)C2(CCCCC2)NC1=O [Example I-1-a-6]
Winter barley (%) (cereals [9]; winter barley): 20% | Winter wheat (%) (cereals [9]; winter wheat): 10% | Destruction in % after 7 d [10]: 90% | degree of damage, Echinochloa (Echinochloa [6]): 100% | degree of damage, Sinapis (Sinapis): 80% | degree of damage, Alopecurus (Alopecurus [7]): 90% | degree of damage, Avena fatua (Avena fatua [8]): 100%

CCc1cc(Cl)cc(OC)c1C1=C(OC(=O)C(C)(C)CC)C2(CCC(OC)CC2)OC1=O (mixture of isomers) [Example I-2-b-4]
Spring barley observed (%) (Spring barley; [13]): 80% | Spring wheat observed (%) (Spring wheat; [14]): 100%

CCc1cc(Cl)cc(OC)c1C1=C(OC(=O)C(C)(C)C)C2(CCCCC2)OC1=O [Example I-2-b-1]
Spring barley observed (%) (cereals [11]; 100 g a.i./ha): 20% | Spring wheat observed (%) (cereals [11]; 100 g a.i./ha): 30% | Spring barley observed (%) (Spring barley; [15]): 10% | Spring barley observed (%) (Spring barley; [13]): 20% | Spring wheat observed (%) (Spring wheat; [14]): 20% | Spring wheat observed (%) (Spring wheat; [15]): 40% | Spring wheat observed (%) (Spring wheat; [13]): 60%

CCc1cc(Cl)cc(OC)c1C1=C(OC(=O)C(C)(C)C)C2(CCC(C)CC2)NC1=O (single isomer, unassigned) [Example I-1-b-4]
Spring barley observed (%) (cereals [11]; 50 g a.i./ha): 60%

CCOC(=O)OC1=C(c2c(CC)cc(Cl)cc2OC)C(=O)OC12CCCCC2 [Example I-2-c-1]
Spring barley observed (%) (cereals [12]; spring barley): 50% | Spring wheat observed (%) (cereals [12]; spring wheat): 65% | Spring barley observed (%) (cereals [11]; 100 g a.i./ha): 15% | Spring wheat observed (%) (cereals [11]; 100 g a.i./ha): 40% | Spring wheat observed (%) (Spring wheat; [15]): 20% | Spring wheat observed (%) (Spring wheat; [13]): 30%

CCc1cc(Cl)cc(OC)c1C1=C(O)C2(CCC(OC)CC2)OC1=O (mixture of isomers) [Example I-2-a-2]
Spring barley observed (%) (cereals [11]; 50 g a.i./ha): 20% | Spring wheat observed (%) (cereals [11]; 50 g a.i./ha): 95% | Spring barley observed (%) (Spring barley; [14]): 60% | Spring barley observed (%) (Spring barley; [15]): 60% | Spring barley observed (%) (Spring barley; [13]): 97%

CCc1cc(Cl)cc(OC)c1C1=C(O)C2(CCCCC2)OC1=O [Example I-2-a-1]
Spring barley observed (%) (Spring barley; [16]): 10% | Spring barley observed (%) (Spring barley; [17]): 15% | Spring barley observed (%) (Spring barley; [18]): 20% | Spring wheat observed (%) (Spring wheat; [16]): 20% | Spring wheat observed (%) (Spring wheat; [17]): 20% | Spring wheat observed (%) (Spring wheat; [18]): 30%

CCOC(=O)OC1=C(c2c(CC)cc(Cl)cc2OC)C(=O)N(CC)C1C (racemic) [Example I-1-c-7]
Spring barley observed (%) (Spring barley; application rate 13 g a.i./ha, without safener): 15% | Spring barley observed (%) (Spring barley; [16]): 30% | Spring barley observed (%) (Spring barley; [17]): 85%

CCc1cc(Cl)cc(OC)c1C1=C(OC(=O)C(C)C)C2(CCC(OC)CC2)OC1=O (mixture of isomers) [Example I-2-b-5]
Spring barley observed (%) (Spring barley; [14]): 50% | Spring barley observed (%) (Spring barley; [15]): 97% | Spring barley observed (%) (Spring barley; [13]): 100% | Spring wheat observed (%) (Spring wheat; [14]): 99%

CCc1cc(Cl)cc(OC)c1C1=C(OC(=O)C(C)(C)C)C2(CCC(OC)CC2)OC1=O (mixture of isomers) [Example I-2-b-6]
Spring barley observed (%) (cereals [11]; 50 g a.i./ha): 40% | Spring wheat observed (%) (cereals [11]; 50 g a.i./ha): 100% | Spring barley observed (%) (Spring barley; [14]): 50% | Spring barley observed (%) (Spring barley; [15]): 97% | Spring barley observed (%) (Spring barley; [13]): 98%

Source: patent US7888285B2, “2,4,6-phenyl substituted cyclic ketoenols” (Bayer CropScience AG, priority 2003, dated 2011)
